Patent US5132429A, “Benzotriazole derivatives and fluorescence-emitting reagents thereof” (priority 1988, dated 1992)

Assays:
α1-AG [1] = experiment: Fluorescence (excitation and fluorescence wavelength) with α1-AG; assay type: physicochemical
Method: (§1) Two different kinds of solutions, one containing α1 -AG and a compound of this invention listed above, the other containing α1 -AG, the compound of this invention, and a drug, are prepared to measure fluorescence intensity at the excitation. fluorescence wavelength, as shown in Table 2. According to the working curve made beforehand, the binding rate of the compound to α1 -AG in each solution is determined and the binding constant of a drug to α1-AG is calculated from the difference between the binding rates in the presence and the absence of a drug.
Sulfosalicylic acid is added to the sample solution containing α1 -AG to remove coexisting proteins, to which the solution containing a compound is added. The mixed solution is subjected to determination of fluorescence intensity at excitation. fluorescence wavelength as shown in Table 2. According to the working curve on the standard solution of α1 -AG, the concentration of α1-AG in the sample is determined.

Human Serum Albumine = experiment: Fluorescence (excitation and fluorescence wavelength) with human serum albumin; assay type: physicochemical
Method: A solution containing a compound is added to a solution containing albumin and the mixed solution is subjected to determination of fluorescence intensity at excitation. fluorescence wavelength as shown in Table 2. According to the working curve on the standard albumin solution made beforehand, the concentration of albumin in the sample solution is determined.

[2] = biological target: α1-AG (α1-acid glycoprotein); experiment: Binding constant of basic drug to α1-AG by displacement of compound 1 (fluorescence probe method, Klotz formula); details: 0.1M phosphoric acid buffer pH 7.4; 3×10^-6 M α1-AG; compound 1 as probe
Method: as §1
(§2) In the fluorescence cell made of quartz with a plug was placed the buffer solution of 0.1M phosphoric acid (2 ml) which pH is 7.4 and containig 1×10^-4 M α1 -AG, to which 5×10^-4 M aqueous solution of the compound 1 was added by 2 μl each with a microcylinder, which was prepared by dissolving about 3 mg of the compound 1 in 1N hydrochloric acid (1 ml), followed by diluting with water to make the total volume 200 times, and the resulting solution was mixed fully to determine fluorescence intensity at 508 nm (excitation wavelength: 418 nm).
(§3) For the buffer solution of 0.1M phosphoric acid (2 ml) which pH is 7.4 and containing 3×10^-6 M α1 -AG, the same procedure as in Example 1 was performed.
As for the other basic drugs shown in Table 3, binding constant were obtained according to the same manner as in Example 11.

α1-AG [3] = details: cited from earlier work
[4] = system: α1-AG (α1-acid glycoprotein); experiment: Binding of compound to α1-AG by fluorescence titration, Scatchard analysis; details: for binding of the compound 1 to α1-AG: pH 7.4
Method: as §2, §3
The binding rate (X) of the compound 1 to α1 -AG was introduced from the following formula (1) [formula]
In this scheme, Fb is fluorescence intensity at some concentration of the compound 1 which was obtained in Experiment 1, Fp is fluorescence intensity at the same concentration of the compound 1 which was obtained in Example 2, and Fo is blank value.
The value introduced from the binding rate at each concentration of the compound 1 was plotted accoding to the formula (2) of Scatchard, whereby the binding parameter of the compound 1 to α1 -AG was obtained.
In this scheme, r is the amount of binding of the compound 1 per α1 -AG (1 mole), n is the number of binding site, Ka is the binding constant of the compound 1, Df is the concentration of the compound 1 which is free form.

SMILES | Excitation Wavelength (α1-AG [1]) | Fluorescence Wavelength (α1-AG [1]) | Excitation Wavelength (Human Serum Albumine) | Fluorescence Wavelength (Human Serum Albumine) | log Kb (binding constant) [2] | further results
CNc1ccc(-n2nc3cc(N)cc(Cl)c3n2)cc1 [Compound 2, 7-chloro-2-(p-methylaminophenyl)-2H-benzotriazolyl-5-amine] | 396 nm | 482 nm | 385 nm | 480 nm | – | –
CN(C)CCCN1c2ccccc2CCc2ccccc21 [Imipramine] | – | – | – | – | 5.61 | –
COC(=O)C1=C(C)NC(C)=C(C(=O)OCCN(C)Cc2ccccc2)C1c1cccc([N+](=O)[O-])c1 (stereo not shown) [Nicardipine] | – | – | – | – | 6.78 | –
COc1ccc([C@@H]2Sc3ccccc3N(CCN(C)C)C(=O)[C@@H]2OC(C)=O)cc1 [Diltiazem] | – | – | – | – | 5.40 | –
CC(C)NCC(O)COc1cccc2[nH]ccc12 (stereo not shown) [Pindolol] | – | – | – | – | 5.33 | –
CNCCCN1c2ccccc2CCc2ccccc21 [Desipramine] | – | – | – | – | 4.86 | –
CCC(c1ccccc1)c1c(O)c2ccccc2oc1=O (stereo not shown) [Phenprocoumon] | – | – | – | – | – | wavelength suitable for determination (α1-AG [3]; M. Otagiri et al., J. of Pharmaceutical Sciences 76(8), 646-649 (1987)): short
Nc1cc(Cl)c2nn(-c3ccc(N4CCOCC4)cc3)nc2c1 [Compound 4, 7-chloro-2-(p-morpholinophenyl)-2H-benzotriazolyl-5-amine] | 396 nm | 502 nm | 383 nm | 465 nm | – | –
CC(CN(C)C)CN1c2ccccc2CCc2ccccc21 (stereo not shown) [Trimipramine] | – | – | – | – | 5.54 | –
COc1ccc2c(c1)N(C[C@H](C)CN(C)C)c1ccccc1S2 [Levomepromazine] | – | – | – | – | 6.01 | –
CN(C)c1ccc(C(=N)c2ccc(N(C)C)cc2)cc1 [Auramin O] | – | – | – | – | – | binding strength to α1-AG (α1-AG [3]; Y. Sugiyama et al, Biochem. Pharmcol. 34(6), 821-829 (1985)): very weak
CCOC(=O)c1cc(N)cc2nn(-c3ccc(N(CC)CC)cc3)nc12 [Compound 5, Ethyl 6-amino-2-(p-diethylaminophenyl)-2H-benzotriazole-4-carboxylate] | 452 nm | 567 nm | 420 nm | 520 nm | – | –
CCN(CC)c1ccc(-n2nc3cc(N)cc(Cl)c3n2)cc1 [Compound 1, 7-chloro-2-(p-diethylaminophenyl)-2H-benzotriazolyl-5-amine] | 418 nm | 508 nm | 415 nm | 505 nm | – | n (number of binding site) ([4]; 0.1M phosphoric acid buffer pH 7.4, 3×10^-6 M α1-AG, Scatchard): 0.40; binding of the compound 1 to α1-AG ([4]; 1×10^-4 M α1-AG, ex 418 nm, em 508 nm): all of the compound 1 bound to α1 -AG; binding of the compound 1 to α1-AG ([4]; 3×10^-6 M α1-AG): under an equilibrium condition
CC(CN1c2ccccc2Sc2ccccc21)N(C)C (stereo not shown) [Promethazine] | – | – | – | – | 4.94 | –
Nc1cc(Cl)c2nn(-c3ccc(Nc4ccccc4)cc3)nc2c1 [Compound 3, 7-chloro-2-(p-anilinophenyl)-2H-benzotriazolyl-5-amine] | 400 nm | 505 nm | 400 nm | 485 nm | – | –
CN(C)CCC=C1c2ccccc2CCc2ccccc21 [Amitriptyline] | – | – | – | – | 5.58 | –
